Results on three molecules are retold here after patent US6930115B2, “Antitumor effect potentiators” (Mitsubishi Pharma Corporation, priority 2000, dated 2005).

Experiment [1] concerns mouse B16-F10 melanoma cultured cells. Put plainly: Hematogenous pulmonary metastasis after transplantation of mouse B16-F10 melanoma cultured cells into tail vein. It counts as in vivo. The following applies: alone. As for the experimental part:
• (1) Preparation of mouse B16-F10 melanoma cultured cells (hereinafter simply B16-F10) B16-F10 cells (a permission to use was obtained from US M.D. Anderson Cancer Center, Dr. I. Fidler and provided for use from Japanese Foundation for cancer research·cancer chemotherapy center, Dr. […] For experiment, B16-F10 cells were suspended in MEM at 5×10^5 cells/mL and 0.2 mL thereof was transferred into the tail vein of 8-week-old male C57BL/6 mice (8 per group). […] Alzet, model 1002, flow rate […], for use for 14 days), and the osmotic pump was intraperitoneally transplanted into the mice one day before the transplantation of B16-F10 cells. • (3) As regards cisplatin, a preparation for injection (product name: Randa injection) was diluted with physiological saline and intraperitoneally administered once the day after transplantation of B16-F10 cells. As regards etoposide, a preparation for injection (product name: […] injection) was diluted with physiological saline and repeatedly administered intraperitoneally once a day for 5 days starting from one day after transplantation of B16-F10 cells. Paclitaxel was purchased from Sigma chemicals Co., suspended in 0.5% metolose solution and repeatedly administered intraperitoneally once every other day (3 times/week for 2 weeks) starting from one day after transplantation of B16-F10 cells. […] In addition, the values of combination index (CI) of the action in concomitant use analyzed by Median Effect Analysis (References and [2]) with regard to the combination group of the compound of the present invention and the anticancer agent are summarized in Table 3 and Table 6.

The test system of experiment [2] is Mouse melanoma B16-F10 cells. Put plainly: Measurement of cell growth activity (MTT), in vitro growth of B16-F10 cells. The class given is cell-based. The note with it: 72 hr culture, MTT. As for the experimental part: Mouse melanoma B16-F10 cells (the aforementioned) were cultured in MEM supplemented with 2 mM L-glutamine, 1 mM MEM non-essential amino acids, 1% MEM vitamins, 1 mM pyruvic acid and 5% FCS, and the cells were scraped off from the culture flask every 3-4 days with a cell scraper (No. 3010, manufactured by Coaster), diluted 10-fold and maintained by subculture. In the experiment examining the effect of the test substance on the cell growth, the B16-F10 cells maintained in vitro by subculture were recovered with a cell scraper, suspended in MEM supplemented with 10% FCS at 2×10^5 cells/mL and added to a 96 well microtest plate (Becton Dickinson) at 1×10^4 cells/50 μL/well. Furthermore, 50 μL of a test substance at a 2-fold concentration of the final concentration was added to the well, and cultured in a CO2 incubator (MCO-175, SANYO Electric Co., Ltd.) at 37° C., 5% CO2 95% air for 72 hr.
After culture, 10 mg/mL of MTT [(3-[4,5-Dimethylthiazol-2-yl]-2,5-diphenyl-tetrazolium bromide)] was added at 10 μL/well, which was followed by culture for 3 hr. Thereafter, 100 μL of 10% SDS (sodium dodecylsulfate)—0.01N HCl was added to dissolve the pigment and absorbance at 570 nm was measured with a multilabel counter (1420 ARVO SX, Pharmacia Biotech Corporation). According to the concentration of the test substance, each well was expressed by absorbance, and average value and standard error. Using the well, to which the medium alone was added, as a control, the growth inhibition rate was calculated according to the following formula. [formula] Analysis method: Based on the dose reaction curves of the inventive compound alone treatment group and cisplatin alone treatment group, the combination index (CI) of the action in concomitant use is calculated by median effect analysis (References and [2]). (Results)

On to `N.N.[Cl][Pt][Cl]` [cisplatin, reference compound], for which the “T/C±standard error (average number of pulmonary metastatic colonies of administration group/control group ×100)” value in experiment [1] (Table 1, cisplatin 0.5 mg/kg intraperitoneally once, 14 days after cell transfer) is 80.2 ± 13.2%; in experiment [1] (Table 1, cisplatin 1 mg/kg intraperitoneally once, 14 days after cell transfer), 66.5 ± 8.3%; in experiment [1] (Table 1, cisplatin 2.5 mg/kg intraperitoneally once, 14 days after cell transfer) it was 57.5 ± 3.0%; in experiment [1] (Table 1, cisplatin 5 mg/kg intraperitoneally once, 14 days after cell transfer), 53.3 ± 4.5%; in experiment [1] (Table 1, cisplatin 10 mg/kg intraperitoneally once, 14 days after cell transfer) it was 46.7 ± 4.1%; in experiment [1] (Table 2, cisplatin 0.5 mg/kg intraperitoneally once, 14 days after cell transfer), 81.7 ± 13.4%. Moreover, the “T/C±standard error (average number of pulmonary metastatic colonies of administration group/control group ×100)” value was 67.7 ± 8.4% in experiment [1] (Table 2, cisplatin 1 mg/kg intraperitoneally once, 14 days after cell transfer); 58.6 ± 3.0% in experiment [1] (Table 2, cisplatin 2.5 mg/kg intraperitoneally once, 14 days after cell transfer); 54.3 ± 4.6% in experiment [1] (Table 2, cisplatin 5 mg/kg intraperitoneally once, 14 days after cell transfer); 30.8 ± 4.7% in experiment [1] (Table 2, cisplatin 10 mg/kg intraperitoneally once, 14 days after cell transfer). The “average growth suppression rate ± standard error” value in experiment [2] (cisplatin 10 μM alone) was 5.813 ± 1.510%; in experiment [2] (cisplatin 30 μM alone), 29.609 ± 4.503%; in experiment [2] (cisplatin 100 μM alone), 96.631 ± 0.109%.

Consider `CC(=O)O[C@H]1C(=O)[C@@]2(C)[C@H]([C@H](OC(=O)c3ccccc3)[C@]3(O)C[C@H](OC(=O)[C@H](O)[C@@H](NC(=O)c4ccccc4)c4ccccc4)C(C)=C1C3(C)C)[C@]1(OC(C)=O)CO[C@@H]1C[C@@H]2O` [paclitaxel, reference compound], for which the “T/C±standard error (average number of pulmonary metastatic colonies of administration group/control group ×100)” value in experiment [1] (Table 5, paclitaxel 1 mg/kg intraperitoneally once every other day (3 times/week for 2 weeks)) came out at 75.9 ± 5.9%; in experiment [1] (Table 5, paclitaxel 2.5 mg/kg intraperitoneally once every other day (3 times/week for 2 weeks)) it was 48.8 ± 8.4%; in experiment [1] (Table 5, paclitaxel 5 mg/kg intraperitoneally once every other day (3 times/week for 2 weeks)) it was 37.3 ± 4.0%; in experiment [1] (Table 5, paclitaxel 10 mg/kg intraperitoneally once every other day (3 times/week for 2 weeks)), 30.3 ± 3.6%; in experiment [1] (Table 5, paclitaxel 25 mg/kg intraperitoneally once every other day (3 times/week for 2 weeks)), 31.5 ± 7.2%.

Regarding `COc1cc([C@@H]2c3cc4c(cc3[C@@H](O[C@@H]3O[C@@H]5CO[C@@H](C)O[C@H]5[C@H](O)[C@H]3O)[C@H]3COC(=O)[C@H]23)OCO4)cc(OC)c1O` [etoposide, reference compound], the “T/C±standard error (average number of pulmonary metastatic colonies of administration group/control group ×100)” value in experiment [1] (Table 4, etoposide 1 mg/kg intraperitoneally once a day for 5 days) amounted to 56.0 ± 3.0%; in experiment [1] (Table 4, etoposide 2.5 mg/kg intraperitoneally once a day for 5 days), 34.0 ± 7.4%; in experiment [1] (Table 4, etoposide 5 mg/kg intraperitoneally once a day for 5 days), 33.4 ± 4.0%; in experiment [1] (Table 4, etoposide 10 mg/kg intraperitoneally once a day for 5 days), 22.5 ± 4.2%; in experiment [1] (Table 4, etoposide 25 mg/kg intraperitoneally once a day for 5 days), 14.5 ± 2.6%.
